Results from the supplement of paper PMC10307832.

Key:
Assay in all cases: relative viability (nuclei count vs DMSO), 5 days (fraction); higher = more cells survive
Everolimus + Alpelisib = compound: CO[C@H]1C[C@@H]2CC[C@@H](C)[C@@](O)(O2)C(=O)C(=O)N2CCCC[C@H]2C(=O)O[C@H]([C@H](C)C[C@@H]2CC[C@@H](OCCO)[C@H](OC)C2)CC(=O)[C@H](C)/C=C(\C)[C@@H](O)[C@@H](OC)C(=O)[C@H](C)C[C@H](C)/C=C/C=C/C=C/1C [Everolimus] + Cc1nc(NC(=O)N2CCC[C@H]2C(N)=O)sc1-c1ccnc(C(C)(C)C(F)(F)F)c1 [Alpelisib] (partner 2 µM)
Outline: (§1)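 Each reported value is a median over duplicate plates. It expresses relative viability: treated-well nuclei count divided by vehicle-well nuclei count. Lung cancer cell lines in 1536-well plates were dosed by pin tool a day after seeding, alone with one drug or with a fixed anchor-drug dose plus five library-drug doses (not always all listed) in √10 steps, and nuclei were counted after 5 days.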

Everolimus + Olaparib = compound: CO[C@H]1C[C@@H]2CC[C@@H](C)[C@@](O)(O2)C(=O)C(=O)N2CCCC[C@H]2C(=O)O[C@H]([C@H](C)C[C@@H]2CC[C@@H](OCCO)[C@H](OC)C2)CC(=O)[C@H](C)/C=C(\C)[C@@H](O)[C@@H](OC)C(=O)[C@H](C)C[C@H](C)/C=C/C=C/C=C/1C [Everolimus] + O=C(c1cc(Cc2n[nH]c(=O)c3ccccc23)ccc1F)N1CCN(C(=O)C2CC2)CC1 [Olaparib] (partner 8 µM)
Outline: as §1

Everolimus + Pemetrexed = compound: CO[C@H]1C[C@@H]2CC[C@@H](C)[C@@](O)(O2)C(=O)C(=O)N2CCCC[C@H]2C(=O)O[C@H]([C@H](C)C[C@@H]2CC[C@@H](OCCO)[C@H](OC)C2)CC(=O)[C@H](C)/C=C(\C)[C@@H](O)[C@@H](OC)C(=O)[C@H](C)C[C@H](C)/C=C/C=C/C=C/1C [Everolimus] + Nc1nc2[nH]cc(CCc3ccc(C(=O)N[C@@H](CCC(=O)O)C(=O)O)cc3)c2c(=O)[nH]1 [Pemetrexed] (partner 0.2 µM)
Outline: as §1

Everolimus + Palbociclib = compound: CO[C@H]1C[C@@H]2CC[C@@H](C)[C@@](O)(O2)C(=O)C(=O)N2CCCC[C@H]2C(=O)O[C@H]([C@H](C)C[C@@H]2CC[C@@H](OCCO)[C@H](OC)C2)CC(=O)[C@H](C)/C=C(\C)[C@@H](O)[C@@H](OC)C(=O)[C@H](C)C[C@H](C)/C=C/C=C/C=C/1C [Everolimus] + CC(=O)c1c(C)c2cnc(Nc3ccc(N4CCNCC4)cn3)nc2n(C2CCCC2)c1=O [Palbociclib] (partner 0.5 µM)
Outline: as §1

Cell Line	relative viability (Everolimus + Alpelisib; first compound 0.01 µM)	relative viability (Everolimus + Alpelisib; first compound 0.03162 µM)	relative viability (Everolimus + Alpelisib; first compound 0.1 µM)	relative viability (Everolimus + Alpelisib; first compound 0.3162 µM)	relative viability (Everolimus + Alpelisib; first compound 1 µM)	relative viability (Everolimus + Olaparib; first compound 0.01 µM)	relative viability (Everolimus + Olaparib; first compound 0.03162 µM)	relative viability (Everolimus + Olaparib; first compound 0.1 µM)	relative viability (Everolimus + Olaparib; first compound 0.3162 µM)	relative viability (Everolimus + Olaparib; first compound 1 µM)	relative viability (Everolimus + Pemetrexed; first compound 0.01 µM)	relative viability (Everolimus + Pemetrexed; first compound 0.03162 µM)	relative viability (Everolimus + Pemetrexed; first compound 0.1 µM)	relative viability (Everolimus + Pemetrexed; first compound 0.3162 µM)	relative viability (Everolimus + Pemetrexed; first compound 1 µM)	relative viability (Everolimus + Palbociclib; first compound 0.01 µM)	relative viability (Everolimus + Palbociclib; first compound 0.03162 µM)	relative viability (Everolimus + Palbociclib; first compound 0.1 µM)	relative viability (Everolimus + Palbociclib; first compound 0.3162 µM)	relative viability (Everolimus + Palbociclib; first compound 1 µM)
LCLC-103H	0.887	0.855	0.846	0.776	0.639	0.709	0.762	0.669	0.685	0.761	0.43	0.453	0.472	0.45	0.438	0.511	0.49	0.465	0.453	0.546
LK-2	0.827		0.607	0.568	0.556	0.594	0.603	0.413	0.403	0.351	0.203	0.229	0.212	0.208	0.167	0.536	0.312	0.321	0.314	0.33
LOU-NH91	0.64	0.551	0.543	0.564	0.52	0.744	0.829	0.789	0.788	0.777	0.477	0.467	0.394	0.418	0.485	0.533	0.561	0.55	0.54	0.547
LU99A	0.284	0.278	0.294	0.259	0.315	0.246	0.21	0.226	0.216	0.236	0.206	0.24	0.248	0.189	0.254	0.242	0.237	0.234	0.203	0.243
LXF-289	0.993	0.967	0.901	0.973	0.868	1.03	1.04	0.885	1.03	1	1.09	1.07	0.823	1.12	1.02	0.583	0.542	0.504	0.504	0.476
NCI-H23	0.355	0.326	0.285	0.281	0.309	0.261	0.219	0.267	0.221	0.22	0.55	0.398	0.607	0.535	0.472	0.261	0.272	0.317	0.232	0.252
NCI-H322M	0.686	0.577	0.578	0.585	0.58	0.723	0.686	0.742	0.704	0.73	0.597	0.598	0.554	0.597	0.618	0.473	0.454	0.409	0.47	0.424
NCI-H358	0.504	0.362	0.438	0.445	0.402	0.424	0.384	0.303	0.325	0.389	0.173	0.162	0.162	0.158	0.153	0.136	0.15	0.129	0.11	0.128
NCI-H441	0.515	0.575	0.582	0.564	0.461	0.517	0.598	0.489	0.657	0.484	0.275	0.276	0.269	0.262	0.286	0.204	0.188	0.153	0.222	0.207
NCI-H460	0.22	0.298	0.199	0.271	0.168	0.44	0.407	0.4	0.403	0.422	0.058	0.0669	0.0635	0.0608	0.072	0.104	0.165	0.123	0.0825	0.0699
NCI-H520	0.434	0.474	0.335	0.296	0.257	0.29	0.209	0.296	0.18	0.312	0.349	0.318	0.324	0.255	0.325	0.155	0.182	0.194	0.14	0.194
NCI-H647	0.626	0.534	0.449	0.429	0.757	0.268	0.303	0.199	0.176	0.368	0.175	0.184	0.156	0.11	0.175	0.194	0.231	0.159	0.137	0.219
NCI-H650	1.05		0.752	0.592	0.587	0.397	0.37	0.373	0.284	0.307	0.645	0.606	0.626	0.516	0.591	0.368	0.262	0.279	0.278	0.248
NCI-H661	0.438	0.345	0.35	0.383	0.309	0.672	0.64	0.576	0.593	0.491	0.805	0.763	0.863	0.793	0.664	0.334	0.321	0.328	0.31	0.295
NCI-H838	0.392	0.385	0.382	0.343	0.347	0.493	0.484	0.494	0.479	0.403	0.229	0.213	0.241	0.228	0.222	0.144	0.146	0.159	0.174	0.123
NCI-H1355	0.415	0.277	0.309	0.327	0.321	0.486	0.514	0.426	0.536	0.48	0.747	0.553	0.521	0.502	0.486	0.229	0.233	0.207	0.213	0.21
NCI-H1395	0.787	0.813	0.722	0.759	1.08	0.405	0.423	0.377	0.401	0.379	0.595	0.571	0.693	0.693	0.7	0.482	0.444	0.466	0.515	0.429
NCI-H1437	0.566	0.438	0.549	0.507	0.294	0.632	0.622	0.588	0.596	0.598	0.296	0.307	0.294	0.29	0.251	0.319	0.313	0.253	0.239	0.248
NCI-H1651	0.639	0.454	0.611	0.537	0.451	0.185	0.201	0.254	0.229	0.211	0.398	0.386	0.423	0.41	0.433	0.474	0.405	0.363	0.351	0.341
NCI-H1666	0.776	0.509	0.584	0.496	0.511	0.725	0.779	0.781	0.731	0.823	0.884	0.859	0.93	0.885	0.825	0.567	0.642	0.599	0.693	0.631
NCI-H1734	0.449	0.398	0.466	0.399	0.463	0.448	0.409	0.456	0.406	0.407	0.407	0.435	0.461	0.385	0.406	0.285	0.241	0.288	0.251	0.258
NCI-H1755	0.646	0.659	0.653	0.643	0.611	0.764	0.592	0.697	0.556	0.588	0.468	0.484	0.512	0.438	0.448	0.407	0.395	0.378	0.361	0.356
NCI-H1792	0.618	0.5	0.312	0.222	0.212	0.21	0.155	0.167	0.113	0.119	0.335	0.245	0.318	0.315	0.183	0.776	0.518	0.448	0.464	0.376
NCI-H1793	0.314	0.225	0.298	0.23	0.267	0.346	0.345	0.319	0.343	0.235	0.373	0.332	0.319	0.351	0.251	0.219	0.19	0.246	0.214	0.166
NCI-H1915	0.806	0.833	0.784	0.732	0.723	0.282	0.31	0.285	0.26	0.288	0.484	0.481	0.469	0.499	0.432	0.398	0.347	0.316	0.378	0.334
NCI-H1944	0.592	0.565	0.593	0.564	0.562	0.389	0.329	0.325	0.35	0.351	0.497	0.545	0.393	0.489	0.404	0.214	0.195	0.196	0.23	0.202
